Each block holds one compound with its values, some of them ahead of it.
Target: Axl (Homo sapiens (Human), UniProt P30530)
Assay: Phospho-Akt in-cell Western assay (Axl-antibody cross-linking stimulation)
Assay type: cell-based
Details: inhibition of Axl activity
Procedure: The working solution: dilute the stock 1:20 with PBS immediately before use. • 10% SDS: working solution: 5% SDS (sodium dodecylsulfate), diluted in PBS Methods: Day 1:
A 96 well TC (tissue culture treated) plate was coated with 10 μg/mL poly-L-Lysine at 37° C. for 30 min, washed twice with PBS, and air-dried for 5 minutes before cells were added. Hela cells were seeded at 10,000 cells/well and the cells were starved in 100 μL starvation medium containing Axl/Fc for 24 hrs.
The cells were pre-treated with test compounds by adding 100 μL of 2× test compound to the starvation medium on the cells. The cells were incubated at 37° C. for 1 hr before stimulation.
The resulting mix was warmed to 37° C. 50 μL of 5× Axl 1st/2nd of antibody cluster was added to the cells and the cells were incubated at 37° C. for 5 min.
After 5 minutes stimulation, the plate was flicked to remove medium and the plate was tapped onto paper towels. Formaldehyde (4.0% in PBS, 100 μL) was added to fix the cells and the cells were incubated at ambient temperature for 20 min without shaking.
The cells were washed with a plate washer buffer to remove the formaldehyde solution. The plate was flicked to removed excess wash buffer and tapped onto paper towels. Quenching buffer (100 μL) was added to each well and the cells were incubated at ambient temperature for 20 minutes without shaking.
The cells were washed with a plate washer buffer to remove the quenching buffer. Blocking buffer (100 μL) was added and the cells were incubated at ambient temperature for at least an hour with gentle shaking.
The cells were washed with a plate washer buffer and diluted primary antibody (50 μL) was added to each well (blocking buffer was added to the negative control wells instead). The plates were incubated overnight at 4° C. with gentle shaking.
The wash buffer was removed, diluted secondary antibody (100 μL) was added, and the cells were incubated at ambient temperature for 1 hour with gentle shaking. During the incubation, the chemiluminescent reagent was brought to ambient temperature.
The secondary antibody was removed by washing the cells 1× with wash buffer, 1× with PBS by plate washer. The PBS was removed from the plate and the chemiluminescent reagent (80 μL: 40 μL A and 40 μL B) was added to each well at ambient temperature.
The resulting chemiluminescence was read with a Luminomitor within 10 minutes to minimize changes in signal intensity. […] The plate was tapped onto paper towels to remove excess liquid from wells and air-dried at ambient temperature for 5 minutes.
Crystal Violet working solution (60 μL) was added to each well and the cells were incubated at ambient temperature for 30 min. The crystal violet solution was removed, and the wells were rinsed with PBS, then washed 3× with PBS (200 μL) for 5 minutes each.
5% SDS solution (70 μL) was added to each well and the cells were incubated on a shaker for 30 min at ambient temperature.
This relative cell number was then used to normalize each luminescence reading. […]

[1] = Hela cells, phospho-Akt readout, Table 1, formula (Ia1)
[2] = phospho-Akt in-cell Western assay
[3] = Hela cells, phospho-Akt readout, Table 5, formula (Ia3)
[4] = Hela cells, phospho-Akt readout, Table 4, formula (Ib2)

Chain of Axl (P30530 26-894): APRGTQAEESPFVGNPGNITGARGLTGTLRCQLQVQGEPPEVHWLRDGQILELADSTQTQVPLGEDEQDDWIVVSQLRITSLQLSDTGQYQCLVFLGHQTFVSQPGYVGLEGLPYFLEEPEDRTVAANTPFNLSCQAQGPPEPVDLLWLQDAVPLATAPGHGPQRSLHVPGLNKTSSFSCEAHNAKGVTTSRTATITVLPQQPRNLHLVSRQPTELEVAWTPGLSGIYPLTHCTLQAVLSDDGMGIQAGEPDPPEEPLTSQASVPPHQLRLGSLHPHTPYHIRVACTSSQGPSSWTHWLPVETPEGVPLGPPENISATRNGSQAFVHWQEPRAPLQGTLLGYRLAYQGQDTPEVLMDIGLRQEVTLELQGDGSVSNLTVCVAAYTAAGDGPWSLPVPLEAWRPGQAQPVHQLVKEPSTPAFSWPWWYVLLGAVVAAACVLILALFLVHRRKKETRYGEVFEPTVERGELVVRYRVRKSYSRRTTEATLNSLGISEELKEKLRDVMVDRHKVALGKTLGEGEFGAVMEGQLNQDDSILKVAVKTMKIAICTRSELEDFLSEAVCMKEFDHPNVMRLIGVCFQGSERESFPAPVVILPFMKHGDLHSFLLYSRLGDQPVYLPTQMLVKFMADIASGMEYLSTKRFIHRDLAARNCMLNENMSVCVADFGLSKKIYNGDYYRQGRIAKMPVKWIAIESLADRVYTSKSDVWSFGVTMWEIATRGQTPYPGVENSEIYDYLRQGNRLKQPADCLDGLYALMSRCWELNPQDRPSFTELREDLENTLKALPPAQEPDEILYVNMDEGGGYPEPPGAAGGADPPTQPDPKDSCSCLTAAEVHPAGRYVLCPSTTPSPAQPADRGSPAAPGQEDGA

IC50 [1]: > 20 µM
SMILES: Nc1nc(Nc2ccc(OCCN3CCCC3)cc2)nn1-c1ccccc1F [Compound 34, 1-(2-fluorophenyl)-N^3-(4-(2-(pyrrolidin-1-yl)ethoxy)phenyl)-1H-1,2,4-triazole-3,5-diamine]

IC50 [2]: 1 to 10 µM
SMILES: Cc1sc2ncnc(-n3nc(Nc4ccc(N5CCN(C6CC7CCC6C7)CC5)cc4)nc3N)c2c1C (stereo not drawn) [Compound 138, N^3-(4-(4-(bicyclo[2.2.1]heptan-2-yl)piperazin-1-yl)phenyl)-1-(5,6-dimethylthieno[2,3-d]pyrimidin-4-yl)-1H-1,2,4-triazole-3,5-diamine]

IC50 [2]: 1 to 10 µM
SMILES: Nc1nc(Nc2ccc(N3CCN(C4CC5CCC4C5)CC3)cc2)nn1-c1nc2ccccc2s1 (stereo not drawn) [Compound 96, 1-(benzo[d]thiazol-2-yl)-N^3-(4-(4-(bicyclo[2.2.1]heptan-2-yl)piperazin-1-yl)phenyl)-1H-1,2,4-triazole-3,5-diamine]

IC50 (Hela cells, phospho-Akt readout, Table 7, formula (Ia4)): < 1 µM
SMILES: Cc1csc2c(-n3nc(Nc4ccc5c(c4)CCC(NC4CC6CCC4C6)CC5)nc3N)nc(Cl)nc12 (stereo not drawn) [Compound 222, 1-(7-methyl-2-chlorothieno[3,2-d]pyrimidin-4-yl)-N^3-(7-(N-bicyclo[2.2.1]heptan-2-yl)amino-6,7,8,9-tetrahydro-5H-benzo[7]annulene-2-yl)-1H-1,2,4-triazole-3,5-diamine]

IC50 [3]: < 1 µM
SMILES: Cc1csc2c(-n3nc(Nc4ccc(C(=O)NCCN5CCCC5)cc4)nc3N)nc(Cl)nc12 [Compound 208, 1-(7-methyl-2-chlorothieno[3,2-d]pyrimidin-4-yl)-N^3-(4-((2-(pyrrolidin-1-yl)ethyl)aminocarbonyl)phenyl)-1H-1,2,4-triazole-3,5-diamine]

IC50 [2]: < 1 µM
SMILES: COc1cc2ccnc(-n3nc(Nc4ccc(N5CCN(C6CCCCCC6)CC5)cc4)nc3N)c2cc1OC [Compound 126, N^3-(4-(4-cycloheptylpiperazin-1-yl)phenyl)-1-(6,7-dimethoxyisoquinolin-1-yl)-1H-1,2,4-triazole-3,5-diamine]

IC50 [4]: < 1 µM
SMILES: COc1cc2ncnc(-n3nc(N)nc3Nc3ccc(N4CCN(C5CCCCC5)CC4)cc3)c2cc1OC [Compound 83, N^5-(4-(4-cyclohexylpiperazin-1-yl)phenyl)-1-(6,7-dimethoxyquinazolin-4-yl)-1H-1,2,4-triazole-3,5-diamine]

IC50 [2]: < 1 µM
SMILES: Nc1nc(Nc2ccc(N3CCN(C4CC5CCC4C5)CC3)c(F)c2)nn1-c1ncnc2sccc12 (stereo not drawn) [Compound 196, 1-(thieno[2,3-d]pyrimidin-4-yl)-N^3-(3-fluoro-4-(4-(bicyclo[2.2.1]heptan-2-yl)-piperazin-1-yl)phenyl)-1H-1,2,4-triazole-3,5-diamine]

IC50 [3]: < 1 µM
SMILES: COc1cc2ncnc(-n3nc(Nc4ccc(C(=O)N5CCN(C6CCCC6)CC5)cc4)nc3N)c2cc1OC [Compound 206, 1-(6,7-dimethoxyquinazolin-4-yl)-N^3-(4-(4-(cyclopentyl)piperazin-1-ylcarbonyl)phenyl)-1H-1,2,4-triazole-3,5-diamine]

IC50 [2]: < 1 µM
SMILES: Nc1nc(Nc2ccc(N3CCN(C4CCCCC4)CC3)cc2)nn1-c1ncc2c(n1)-c1ccccc1CC2 [Compound 93, N^3-(4-(4-cyclohexylpiperazin-1-yl)phenyl)-1-(5,6-dihydrobenzo[h]quinazolin-2-yl)-1H-1,2,4-triazole-3,5-diamine]

IC50 [1]: < 1 µM
SMILES: Nc1nc(Nc2ccc(OCCN3CCCC3)cc2)nn1-c1ccc2ccccc2n1 [Compound 41, N^3-(4-(2-(pyrrolidin-1-yl)ethoxy)phenyl)-1-(quinolin-2-yl)-1H-1,2,4-triazole-3,5-diamine]

IC50 [2]: < 1 µM
SMILES: COc1cc2ccnc(-n3nc(Nc4ccc(N5CCN(C6CC7CCC6C7)CC5)cc4)nc3N)c2cc1OC (stereo not drawn) [Compound 125, N^3-(4-(4-(bicyclo[2.2.1]heptan-2-yl)piperazin-1-yl)phenyl)-1-(6,7-dimethoxyisoquinolin-1-yl)-1H-1,2,4-triazole-3,5-diamine]

IC50 [2]: > 20 µM
SMILES: COc1cc2ncnc(-n3nc(Nc4ccc(N5CCN(C6C7CC8CC(C7)CC6C8)CC5)cc4)nc3N)c2cc1OC (stereo not drawn) [Compound 111]

IC50 [2]: < 1 µM
SMILES: Nc1nc(Nc2ccc(N3CCN([C@H]4C[C@@H]5CC[C@H]4C5)CC3)c(Cl)c2)nn1-c1ncnc2ccsc12 [Compound 243, 1-thieno[3,2-d]pyrimidin-4-yl-N^3-(3-chloro-4-(4-((1S,2S,4R)-bicyclo[2.2.1]heptan-2-yl)piperazin-1-yl)phenyl)-1H-1,2,4-triazole-3,5-diamine]

IC50 [1]: > 20 µM
SMILES: Nc1nc(Nc2ccc(OCCN3CCCCC3)cc2)nn1-c1ccnc(N2CCOCC2)c1 [Compound 15, 1-(2-morpholinopyridin-4-yl)-N^3-(4-(2-(piperidin-1-yl)ethoxy)phenyl)-1H-1,2,4-triazole-3,5-diamine]

IC50 [1]: < 1 µM
SMILES: Nc1nc(Nc2ccc(OCCN3CCCC3)cc2)nn1-c1nc(Cl)nc2c1CCC2 [Compound 49, 1-(2-chloro-6,7-dihydro-5H-cyclopenta[d]pyrimidin-4-yl)-N^3-(4-(2-(pyrrolidin-1-yl)ethoxy)phenyl)-1H-1,2,4-triazole-3,5-diamine]

IC50 [2]: < 1 µM
SMILES: CN1CCN(c2ccc(Nc3nc(N)n(-c4ncc5c(n4)-c4ccccc4CC5)n3)cc2)CC1 [Compound 92, 1-(5,6-dihydrobenzo[h]quinazolin-2-yl)-N^3-(4-(4-methylpiperazin-1-yl)phenyl)-1H-1,2,4-triazole-3,5-diamine]

IC50 [1]: > 20 µM
SMILES: Cc1cc(O)nc(-n2nc(Nc3ccc(OCCN4CCCC4)cc3)nc2N)n1 [Compound 42, 2-(5-amino-3-(4-(2-(pyrrolidin-1-yl)ethoxy)phenylamino)-1H-1,2,4-triazol-1-yl)-6-methylpyrimidin-4-ol]

IC50 [1]: < 1 µM
SMILES: Nc1nc(Nc2ccc(OCCN3CCCC3)cc2)nn1-c1nccc2ccsc12 [Compound 64, N^3-(4-(2-(pyrrolidin-1-yl)ethoxy)phenyl)-1-(thieno[2,3-c]pyridin-7-yl)-1H-1,2,4-triazole-3,5-diamine]

IC50 [3]: < 1 µM
SMILES: Nc1nc(Nc2ccc(N3CCOCC3)c(F)c2)nn1-c1nccc2ccccc12 [Compound 161, N^3-(3-fluoro-4-morpholinophenyl)-1-(isoquinolin-1-yl)-1H-1,2,4-triazole-3,5-diamine]

IC50 [2]: < 1 µM
SMILES: Cc1cc(Nc2nc(N)n(-c3nnc(C)c4ccsc34)n2)ccc1N1CCN(C2CC3CCC2C3)CC1 (stereo not drawn) [Compound 217, 1-(4-methylthieno[3,2-d]pyridazin-7-yl)-N^3-(3-methyl-4-(4-(bicyclo[2.2.1]heptan-2-yl)-piperazin-1-yl)phenyl)-1H-1,2,4-triazole-3,5-diamine]

IC50 [3]: < 1 µM
SMILES: COc1cc2c(-n3nc(Nc4ccc(C5CCN(C)CC5)cc4)nc3N)ncnc2cc1O [Compound 169, 4-(5-amino-3-(4-(1-methylpiperidin-4-yl)phenylamino)-1H-1,2,4-triazol-1-yl)-6-methoxyquinazolin-7-ol]

IC50 [4]: > 20 µM
SMILES: Nc1nc(Nc2ccc(N3CCN(C4CC5CCC4C5)CC3)cc2)n(-c2nc3ccccc3s2)n1 (stereo not drawn) [Compound 95, 1-(benzo[d]thiazol-2-yl)-N^5-(4-(4-(bicyclo[2.2.1]heptan-2-yl)piperazin-1-yl)phenyl)-1H-1,2,4-triazole-3,5-diamine]

IC50 [3]: < 1 µM
SMILES: Cc1csc2c(-n3nc(Nc4ccc(N5CCC(N6CCCCC6)CC5)c(F)c4)nc3N)nc(Cl)nc12 [Compound 210, 1-(7-methyl-2-chlorothieno[3,2-d]pyrimidin-4-yl)-N^3-(3-fluoro-4-(4-piperidin-1-ylpiperidin-1-yl)phenyl)-1H-1,2,4-triazole-3,5-diamine]

Source: patent US10166216B2 (Rigel Pharmaceuticals, Inc., priority 2006, dated 2019)
